Data taken from patent publication US12474342B2, “Methods for treating cancer and the use of biomarkers as a predictor of clinical sensitivity to therapies” (CELGENE CORPORATION, priority 2016, dated 2025).
pEC50, pIC50: −log10 of the molar value. Where two headings read alike, the source gives them in different places.

Assays:
[1] = tested on: OCI-AML2 cells; assay: Anti-proliferation 72-hour CTG assay, OCI-AML2; format: cell-based; details: Homo sapiens; OCI-AML2, 72-hour CTG assay; read-out: IC50 of the anti-proliferative effect
Protocol: A plethora of AML cell lines were treated with serial dilutions of Compound D. IC50 value of the anti-proliferation effect of Compound D (as determined in 72-hour CTG assays) in each cell line is summarized in Table 1.

[2] = tested on: nontumorigenic human hepatocellular cell line THLE-2; assay: Anti-proliferation, THLE-2; format: cell-based; details: THLE-2 (data not shown)
[3] = tested on: KG-1 AML cell cultures; assay: Induction of apoptosis (Annexin V assay), KG-1; format: cell-based; details: Homo sapiens, read-out: Induction of Apoptosis by Compound D (Annexin V assay) EC50
[4] = tested on: ATF3; assay: ATF3 protein induction, western blot, HNT-34; format: cell-based, human; details: HNT-34, 10 nM Compound D
Protocol: The time course of GSPT1 degradation was monitored by western blot analysis of HNT-34 AML cells and normal PBMCs (FIGS. 32A-32D) following incubation with Compound D (1, 10, and 100 nM).

[5] = tested on: ATF3 and DDIT3 mRNA; assay: ATF3 and DDIT3 mRNA induction, healthy PBMCs; format: cell-based, human; details: by 8 hours
From the text: The kinetics of induction of mRNA for UPR factors ATF3 and DDIT3 in HNT-34 cells also strongly differed from that in PBMCs. […] This is also consistent with the reduced cytotoxicity observed for Compound D in normal adult lymphocytes as compared with tumor cells (data not shown).

[6] = target: T1, GSPT1 (Homo sapiens, UniProt P15170+Q96SW2); assay: GSPT1 protein reduction, western analysis, KG-1; format: cell-based; parameters: reduction in GSPT1 protein level was evaluated in human normal PBMCs; endogenous in cells; host or cells: primary PBMCs from normal donors (ID 4328, 4379) and AML patients (ID 11SH, 09P6)
T1 sequence (P15170 1-637 isoform P15170-3): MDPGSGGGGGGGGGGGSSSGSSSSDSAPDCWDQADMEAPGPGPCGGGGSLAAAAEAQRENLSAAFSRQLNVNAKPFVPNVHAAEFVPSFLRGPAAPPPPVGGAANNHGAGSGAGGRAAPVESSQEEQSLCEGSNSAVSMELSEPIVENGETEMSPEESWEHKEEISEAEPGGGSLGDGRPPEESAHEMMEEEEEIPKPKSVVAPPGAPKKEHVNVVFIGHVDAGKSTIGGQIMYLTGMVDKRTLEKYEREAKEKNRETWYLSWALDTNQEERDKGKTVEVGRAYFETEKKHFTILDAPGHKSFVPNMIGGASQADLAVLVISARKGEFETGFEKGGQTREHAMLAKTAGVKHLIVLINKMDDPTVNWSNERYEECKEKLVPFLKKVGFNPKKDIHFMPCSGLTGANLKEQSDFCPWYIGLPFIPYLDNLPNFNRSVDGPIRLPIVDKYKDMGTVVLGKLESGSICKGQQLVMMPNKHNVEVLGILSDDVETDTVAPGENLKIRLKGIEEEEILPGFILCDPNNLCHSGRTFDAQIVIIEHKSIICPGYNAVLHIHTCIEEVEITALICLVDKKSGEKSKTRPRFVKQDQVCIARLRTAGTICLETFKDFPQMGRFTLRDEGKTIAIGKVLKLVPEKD
T1 sequence (Q96SW2 whole entry): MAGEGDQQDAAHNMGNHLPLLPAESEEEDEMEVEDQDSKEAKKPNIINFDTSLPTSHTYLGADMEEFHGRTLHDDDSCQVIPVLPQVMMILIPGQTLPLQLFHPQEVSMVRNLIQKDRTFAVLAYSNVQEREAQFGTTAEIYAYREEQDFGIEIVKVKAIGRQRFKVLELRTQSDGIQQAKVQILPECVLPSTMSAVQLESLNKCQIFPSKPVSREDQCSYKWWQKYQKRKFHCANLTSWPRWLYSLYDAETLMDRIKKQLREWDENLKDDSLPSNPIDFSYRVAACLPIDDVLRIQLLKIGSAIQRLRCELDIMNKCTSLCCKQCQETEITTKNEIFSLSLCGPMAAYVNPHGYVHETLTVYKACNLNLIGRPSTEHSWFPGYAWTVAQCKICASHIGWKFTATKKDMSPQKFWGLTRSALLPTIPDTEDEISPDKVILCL
T1 sequence (Q16531 whole entry partner): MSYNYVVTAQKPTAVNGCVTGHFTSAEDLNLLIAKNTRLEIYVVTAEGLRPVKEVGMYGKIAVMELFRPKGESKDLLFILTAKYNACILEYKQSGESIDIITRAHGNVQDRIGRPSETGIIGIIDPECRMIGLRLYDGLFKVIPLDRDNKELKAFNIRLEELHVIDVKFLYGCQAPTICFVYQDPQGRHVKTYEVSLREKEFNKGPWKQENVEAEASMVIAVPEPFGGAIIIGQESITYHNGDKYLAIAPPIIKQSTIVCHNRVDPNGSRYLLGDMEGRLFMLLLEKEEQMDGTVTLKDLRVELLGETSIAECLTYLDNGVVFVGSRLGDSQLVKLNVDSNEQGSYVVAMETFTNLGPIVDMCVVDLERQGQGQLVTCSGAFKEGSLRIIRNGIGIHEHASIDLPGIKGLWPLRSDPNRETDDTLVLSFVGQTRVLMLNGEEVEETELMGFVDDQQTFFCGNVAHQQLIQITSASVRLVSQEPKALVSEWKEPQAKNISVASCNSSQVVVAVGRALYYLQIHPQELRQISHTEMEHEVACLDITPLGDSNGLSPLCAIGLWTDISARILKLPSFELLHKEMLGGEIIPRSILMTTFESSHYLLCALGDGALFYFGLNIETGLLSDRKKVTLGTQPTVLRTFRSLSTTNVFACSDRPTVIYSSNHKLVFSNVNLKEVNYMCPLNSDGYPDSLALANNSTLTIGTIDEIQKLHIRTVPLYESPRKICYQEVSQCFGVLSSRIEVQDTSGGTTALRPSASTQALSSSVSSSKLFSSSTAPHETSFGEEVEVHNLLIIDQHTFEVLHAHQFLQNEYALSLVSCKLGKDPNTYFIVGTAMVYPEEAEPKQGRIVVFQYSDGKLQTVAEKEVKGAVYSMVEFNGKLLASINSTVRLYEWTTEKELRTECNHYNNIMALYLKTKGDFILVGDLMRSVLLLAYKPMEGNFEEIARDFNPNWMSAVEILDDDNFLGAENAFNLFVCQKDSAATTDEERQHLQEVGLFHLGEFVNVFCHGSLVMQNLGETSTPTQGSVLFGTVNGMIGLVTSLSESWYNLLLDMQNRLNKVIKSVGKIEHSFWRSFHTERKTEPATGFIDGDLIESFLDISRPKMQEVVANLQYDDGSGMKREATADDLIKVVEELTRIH
Protocol: Cells were treated with DMSO alone, 200 nM Compound D, or 200 nM Compound E. After 8 or 12 hours, the expression levels of various cellular components along UPR or apoptosis pathways were measured. […] Reduction of BIP indicates UPR.
To further investigate the timeline of cellular events upon Compound D treatment, KG1 cells were treated with DMSO alone or 200 nM Compound D. At 2, 4, 6, 8, 10, or 12 hours, the expression levels of various cellular components along ATF4 or apoptosis pathways were measured.
In two sensitive AML cell lines, KG-1 and HL-60, both a concentration-dependent decrease in GSPT1 protein and an increase in RNA expression of ATF3, CHOP, and SRSF3 and SRSF6 NMD transcripts at the 8-hour time point were compared to caspase 3/7 activation (apoptosis) at the 24-hour (FIG. 30A [KG-1]; FIG. 30C [HL-60]) and 48-hour (FIG. 30B [KG-1]; FIG. 30D [HL-60]) time points.
(§1) The reduction in the level of GSPT1 protein was concentration-dependent over the range of 3 to 1000 nM in eight of the nine AML cell lines and over the range of 300 to 1000 nM in one relatively insensitive AML cell line. The time course of the reduction in GSPT1 by Compound D also was studied for up to 48 hours. The progressive degradation of GSPT1 over the course of 1 to 20 hours was evident in the presence of all concentrations of Compound D studied from 3 to 300 nM in HNT-34, HL-60, and ML-2 cells, with little GSPT1 remaining by 20 hours at 100 or 300 nM Compound D in HNT-34 or HL-60 cells (FIG. 34 and FIG. 35C). Time-dependent reduction in GSPT1 was also observed in KG-1 and OCI-AML2 cells at 3 to 1000 nM Compound D, with little GSPT1 remaining in KG-1 cells at 100 to 300 nM at 24 hours or in OCI-AML2 cells at 300 and 1000 nM at 24 hours (FIG. 35D). Loss of GSPT1 occurred more slowly in Kasumi-1, AML-193, and F36-P cells.
(§2) Compound D-mediated GSPT1 reduction at 8 hours was compared to induction of caspase 3/7 activation (apoptosis) at 12, 24, and 48 hour time points in these nine AML cell lines. […] A positive association (r^2=0.50; R=0.71; p value=4.86E-002) was observed between the level of GSPT1 reduction and apoptosis induction in the AML cell panel (FIG. 36), with >90% GSPT1 reduction correlating with induction of apoptosis.

[7] = target: T1, GSPT1; assay: GSPT1 protein reduction, western analysis, OCI-AML2; format: cell-based; parameters: reduction in GSPT1 protein level was evaluated in human normal PBMCs; endogenous in cells; host or cells: primary PBMCs from normal donors (ID 4328, 4379) and AML patients (ID 11SH, 09P6); details: for degradation of GSPT1: 100 nM
Protocol: Thus, Compound D-induced GSPT1 degradation is also CRBN-dependent.
as §1, §2

[8] = target: T1, GSPT1; assay: GSPT1 protein reduction, western analysis, AML patient PBMCs; format: cell-based; parameters: reduction in GSPT1 protein level was evaluated in human normal PBMCs; endogenous in cells; host or cells: primary PBMCs from normal donors (ID 4328, 4379) and AML patients (ID 11SH, 09P6); details: PBMC sample 11SH (AML)

O=C1CCC(N2Cc3cc(CNC(=O)C(F)(F)c4ccc(Cl)cc4)ccc3C2=O)C(=O)N1 (stereo not drawn) [Compound D, 2-(4-chlorophenyl)-N-((2-(2,6-dioxopiperidin-3-yl)-1-oxoisoindolin-5-yl)methyl)-2,2-difluoroacetamide]
pIC50 [1]: 7.24
pIC50 [2]: ~5.00
pEC50 ([3]; KG-1, Compound F 0 μM): 7.70
pEC50 ([3]; KG-1, Compound F 0.1 μM): 7.52
pEC50 ([3]; KG-1, Compound F 1.0 μM): 7.00
pEC50 ([3]; KG-1, Compound F 10 μM): 6.00
pEC50 ([3]; KG-1, Compound F 100 μM): 5.10
time of induction of ATF3 protein [4]: 12 h
induction of ATF3 or DDIT3 mRNA [5]: no induction
time of GSPT1 degradation ([6]; KG1, 200 nM): ≤ 2 h
degradation of GSPT1 ([6]; KG1, 200 nM, 8 or 12 hours): induced degradation
reduction of GSPT1 protein levels ([6]; KG-1, 100 nM Compound D, 4 hours): greater than 800
reduction of GSPT1 protein levels ([6]; KG-1, 100 nM or greater, 8-hour time point): > 90%
degradation of GSPT1 ([7]; CRBN -/- OCI-AML2 cells): could not induce degradation
reduction of GSPT1 protein levels ([7]; OC-AML2, 100 nM Compound D, 8 hours): greater than 800
Percent Reduction at 100 nM Compound D GSPTI (8 hr) ([7]; OCI-AML2, 100 nM, 8 hr): 89%
degradation of GSPT1 ([7]; parental OCI-AML2 cells): induced degradation
Reduction in GSPT1 Protein Level ([8]; 100 nM Compound D, 8 hours): 86%
Reduction in GSPT1 Protein Level ([8]; 100 nM Compound D, 22 hours): 100%
Reduction in GSPT1 Protein Level ([8]; 300 nM Compound D, 8 hours): 100%
Reduction in GSPT1 Protein Level ([8]; 300 nM Compound D, 22 hours): 100%
